Patent publication US20240368168A1, “SARM1 ENZYME ACTIVITY INHIBITOR AND APPLICATION THEREOF” (ARTIVILA BIOPHARMA, priority 2021, published 2024)
pEC50, pIC50: −log10 of the molar value. Counter-ions that a name gives are not always drawn.

How the values were obtained:
[1] = target: T1, dN-SARM1 protein (Homo sapiens, UniProt Q6SZW1); assay: In vitro biochemical assay for inhibiting SARM1 enzymatic activity (IC50), PC6 fluorescence method; conditions: 50 μM NAD, 50 μM PC6, 50 μM NMN activator
T1 construct: the N-terminal mitochondrial localization signal peptide of SARM1 was removed
T1 sequence (Q6SZW1 28-724): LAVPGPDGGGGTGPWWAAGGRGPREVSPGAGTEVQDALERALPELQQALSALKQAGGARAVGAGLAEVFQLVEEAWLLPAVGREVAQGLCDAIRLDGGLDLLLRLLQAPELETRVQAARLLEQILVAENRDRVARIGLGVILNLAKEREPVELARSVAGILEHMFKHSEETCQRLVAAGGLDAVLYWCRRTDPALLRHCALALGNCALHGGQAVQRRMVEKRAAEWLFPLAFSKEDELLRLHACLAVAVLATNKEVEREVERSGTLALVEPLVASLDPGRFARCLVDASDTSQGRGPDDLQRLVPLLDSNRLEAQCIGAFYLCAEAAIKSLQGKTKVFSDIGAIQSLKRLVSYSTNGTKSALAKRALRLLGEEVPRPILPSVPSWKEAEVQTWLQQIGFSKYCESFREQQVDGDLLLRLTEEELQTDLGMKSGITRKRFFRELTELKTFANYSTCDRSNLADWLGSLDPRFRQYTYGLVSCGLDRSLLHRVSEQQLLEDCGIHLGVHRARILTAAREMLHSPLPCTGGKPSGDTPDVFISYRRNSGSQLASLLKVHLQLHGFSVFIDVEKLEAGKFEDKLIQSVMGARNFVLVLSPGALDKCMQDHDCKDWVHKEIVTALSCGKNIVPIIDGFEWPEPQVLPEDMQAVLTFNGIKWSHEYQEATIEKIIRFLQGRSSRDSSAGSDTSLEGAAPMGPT
Description: 200 μM compound was first added to a solution of 0.05 μg/ml dN-SARM1 in 50 mM Tris-HCl (pH 7.5). Half of the mixture was added to an equal volume of a solution of 0.05 μg/ml dN-SARM1 in 50 mM Tris-HCl (pH 7.5) and mixed. The drug was diluted 6 times in this manner, with the final concentrations being 200, 100, 50, 25, 12.5, 6.25, 3.125 μM, or 200, 50, 12.5, 3.125, 0.78, 0.195, 0.049 μM, respectively. The protein without inhibitors added, being used as control group, was incubated at room temperature for 10 minutes.
50 μM NAD, 50 μM PC6 as substrate and 50 μM NMN as activator were added to the dN-SARM1 protein incubated with the inhibitor and reacted for 30 minutes at room temperature. The concentration of each component was the final concentration in the reaction system.
During the reaction, PC6 fluorescence spectrum dynamics were detected by a microplate reader, wherein the excitation wavelength and emission wavelength for detection were 390 nm and 520 nm, respectively. Finally, the reaction rate was used to express the activity of the protein, and the half inhibitory concentration was calculated. The higher the reaction rate, the stronger the protein activity, and the lower the inhibitory efficiency of the compound.
The dose curve of compounds inhibiting SARM1 enzymatic activity was determined using the above method.

[2] = target: T2, SARM1 protein in iSARM1 (HEK293) cells (Homo sapiens, UniProt Q6SZW1); assay: Inhibitory activity in inducible SARM1 overexpressing cell line, intracellular cADPR level; format: cell-based; conditions: activator CZ-48 100 μM, cADPR content
T2 construct: The full-length SARM1 was synthesized into the pUC57 plasmid by WZ Biosciences Inc., and PCR was performed using pUC57-SARM1 as a DNA template
T2 sequence (Q6SZW1 28-724): T1 sequence (Q6SZW1 28-724)
Description: In this example, the gene sequence of SARM1 was amplified using PCR, and constructed into pInducer20-neo plasmid. pInducer20-SARM1 virus was packaged in a liposome and infected HEK293 to obtain an inducible SARM1-overexpressing cell line, which was labeled as iSARM1 (HEK293). The specific preparation was as follows:
First, a 96-well culture plate was treated with 0.05 mg/ml polylysine for 5 minutes and washed once with PBS. 3×10^4 iSARM1 (HEK293) cells were plated into the 96-well plate and cultured overnight in a 37° C. and 5% incubator. The next day, the cells were added with an inhibitor with a final concentration of 50 μM, incubated in the incubator for 1.5 hours, added with activator CZ-48 with a final concentration of 100 μM, and incubated for 16 hours. Meanwhile, the cells without adding CZ-48 or without adding drug were set as control group. Finally, the intracellular cADPR level was detected to represent the activity of SARM1, and the inhibition rate of SARM1 in cells by 50 μM inhibitor was calculated.
The cADPR measurement was performed as follows. First, the cells were washed once with PBS, and added with 150 μl of pre-cooled 0.6M perchloric acid (PCA) to quickly lyse the cells and precipitate the protein. The PCA supernatant was transferred to a 1.5 ml centrifuge tube. The protein in the culture medium was dissolved again with 100 μl of 1M NaOH. The supernatant was added with 0.5 ml of organic reagent mixture (trioctylamine:chloroform=1:3) to extract PCA from water. After sufficient shaking, the mixture was centrifuged at 12,000 rpm for 10 minutes. The solution was divided into 3 layers: the upper aqueous phase, containing the small molecules of interest; the lower organic phase, in which PCA was dissolved; and a thin protein layer between the upper and lower layers. The upper layer was transferred to a new centrifuge tube, added with 1M Tris-Mg at a ratio of 1:100 (1M Tris (pH 8.0): 1M MgCl2=9:1), added with NADase at a ratio of 1:250, and treated at 37° C. overnight to remove NAD^+ from the mixed solution. After the treatment was completed, the mixed solution was filtered using Millipore's 10 K 96-well filter plate to remove NADase.
The cADPR content in the solution was determined through Cycling analysis method. The specific steps were as follows: 20 μl of the sample to be tested or the cADPR standard was taken and added to a 96-well opaque white plate. Preparation of reaction solution: 9.6 ml of PBS (pH 7.4), 200 μl of ethanol, 150 μl of 1 mg/ml AD, 10 μl of 10 mM FMN, 5 μl of 18 mg/ml Diaphorase, 10 μl of 10 mM Resazurin, and 100 μl of 1M Nam. Half of the reaction solution was divided and added with 0.2 μg/ml cyclase. The reaction solution without adding cyclase was used as control experiment. Each sample was divided into two groups, 3 replicates in each group. The reaction solutions containing or not containing cyclase were added to each group to perform the reaction. The reaction kinetic curve within 30 minutes was recorded (Ex:Em=544/599). The average slope of the reaction was calculated. Conversion was performed according to cADPR standard to obtain the accurate cADPR content. A curve of intracellular cADPR content vs corresponding inhibitor concentration was plotted. The half inhibitory concentration of the inhibitor was calculated.

pIC50 [1]	pEC50 [2]	Structure (SMILES)
> 6.00	5.00 to 6.00	CNc1ccc2ncc(-c3ccccc3)n2c1 [Compound 65, N-methyl-3-phenylimidazo[1,2-a]pyridin-6-amine]
5.00 to 6.00	5.00 to 6.00	CNc1ccc2ncc(-c3ccccc3Cl)n2c1 [Compound 68, 3-(2-chlorophenyl)-N-methylimidazo[1,2-a]pyridin-6-amine]
5.00 to 6.00	5.00 to 6.00	CNc1ccc2ncc(-c3cccs3)n2c1 [Compound 69]
5.00 to 6.00	5.00 to 6.00	CNc1ccc2ncc(-c3cccc(OC)c3)n2c1 [Compound 70]
5.00 to 6.00	> 6.00	CN(C(=O)OC(C)(C)C)c1ccc2ncc(C3CCCCC3)n2c1 [Compound 84, tert-butyl (3-cyclohexylimidazo[1,2-a]pyridin-6-yl)(methyl)carbamate]
> 6.00	5.00 to 6.00	c1ccc(-c2cnc3ccc(NC4CCOC4)cn23)cc1 (stereo not shown) [Compound 87, 3-phenyl-N-(tetrahydrofuran-3-yl)imidazo[1,2-a]pyridin-6-amine]
> 6.00	5.00 to 6.00	CC(=O)Nc1cccc(-c2cnc3ccc(N(C)C(=O)OC(C)(C)C)cn23)c1 [Compound 96, tert-butyl (3-(3-acetylaminophenyl)imidazo[1,2-a]pyridin-6-yl)(methyl)carbamate]
5.00 to 6.00	5.00 to 6.00	CN(C(=O)OC(C)(C)C)c1ccc2ncc(-c3cccc(NC(=O)COCCOCCOCC(N)=O)c3)n2c1 [Compound 99, tert-butyl (3-(3-(2-(2-(2-(2-amino-2-oxoethoxy)ethoxy)ethoxy)acetamido)phenyl)imidazolin[1,2-a]pyridin-6-yl)(methyl)carbamate]
5.00 to 6.00	5.00 to 6.00	Cc1ncsc1-c1ccc(CNC(=O)[C@@H]2C[C@@H](O)CN2C(=O)[C@@H](NC(=O)COCCOCC(=O)Nc2cccc(-c3cnc4ccc(N(C)C(=O)OC(C)(C)C)cn34)c2)C(C)(C)C)cc1 [Compound 113]
> 6.00	5.00 to 6.00	CNc1ccc2ncc(-c3cccc(NC(=O)COCCOCC(=O)N[C@H](C(=O)N4C[C@H](O)C[C@H]4C(=O)NCc4ccc(-c5scnc5C)cc4)C(C)(C)C)c3)n2c1 [Compound 114, (2S,4R)-1-((S)-3,3-dimethyl-2-(2-(2-(2-((3-(6-(methylamino)imidazo[1,2-a]pyridin-3-yl)phenyl)amino)-2-oxoethoxy)ethoxy)acetamido)butyryl)-4-hydroxy-N-(4-(4-methylthiazol-5-yl)benzyl)pyrrolidin-2-carboxamide hydrochloride]
> 6.00	> 6.00	CN(C(=O)OC(C)(C)C)c1ccc2ncc(-c3cccc(NC(=O)COCCOCC(=O)Nc4cccc(-c5cnc6ccc(N(C)C(=O)OC(C)(C)C)cn56)c4)c3)n2c1 [Compound 116, ((((((2,2′-(ethane-1,2-diylbis(oxy))bis(acetyl))bis(azadialkyl))bis(31-phenylene))bis(imidazo[1,2-a]pyridin-3,6-diyl))bis(tert butylmethylcarbamate)]
5.00 to 6.00	> 6.00	Cc1ncsc1-c1ccc(CNC(=O)[C@@H]2C[C@@H](O)CN2C(=O)[C@@H](NC(=O)COCCOCCOCC(=O)N(C)c2ccc3ncc(-c4ccccc4Cl)n3c2)C(C)(C)C)cc1 [Compound 118, (2S,4R)-1-((S)-15-(tert-butyl)-2-(3-(2-chlorophenyl)imidazo[1,2-a]pyridin-6-yl)-3,13-dioxo-5,8,11-trioxa-2,14-diazahexadecane-16-acyl)-4-hydroxy-N-(4-(4-methylthiazol-5-yl)benzyl) pyrrolidin-2-carboxamide]

Continued, compound first:

Structure (SMILES)	pIC50 [1]	pEC50 [2]
CN(C(=O)OC(C)(C)C)c1ccc2ncc(-c3cccc(N)c3)n2c1 [Compound 2]	> 6.00	5.00 to 6.00
CN(C(=O)OC(C)(C)C)c1ccc2ncc(-c3ccc(S(N)(=O)=O)cc3)n2c1 [Compound 6]	5.00 to 6.00	> 6.00
CN(C(=O)OC(C)(C)C)c1ccc2ncc(-c3cccc(C(N)=O)c3)n2c1 [Compound 7]	5.00 to 6.00	5.00 to 6.00
CN(C(=O)OC(C)(C)C)c1ccc2ncc(-c3ccccc3)n2c1 [Compound 8]	5.00 to 6.00	5.00 to 6.00
NS(=O)(=O)c1cccc(-c2cnc3ccccn23)c1 [Compound 9]	5.00 to 6.00	5.00 to 6.00
Cc1ccccc1-c1cnc2ccc(N(C)C(=O)OC(C)(C)C)cn12 [Compound 10]	5.00 to 6.00	> 6.00
CN(C(=O)OC(C)(C)C)c1ccc2ncc(-c3ccccc3Cl)n2c1 [Compound 11]	5.00 to 6.00	> 6.00
CN(C(=O)OC(C)(C)C)c1ccc2ncc(-c3cccs3)n2c1 [Compound 12]	5.00 to 6.00	> 6.00
COc1cccc(-c2cnc3ccc(N(C)C(=O)OC(C)(C)C)cn23)c1 [Compound 13]	> 6.00	5.00 to 6.00
COc1ccc(-c2cnc3ccc(N(C)C(=O)OC(C)(C)C)cn23)cc1 [Compound 14]	5.00 to 6.00	5.00 to 6.00
CN(C(=O)OC(C)(C)C)c1ccc2ncc(-c3cccnc3)n2c1 [Compound 15]	5.00 to 6.00	5.00 to 6.00
CN(C(=O)OC(C)(C)C)c1ccc2ncc(-c3ccncc3)n2c1 [Compound 17]	5.00 to 6.00	5.00 to 6.00
COCCOCC(=O)Nc1cccc(-c2cnc3ccc(N(C)C(=O)OC(C)(C)C)cn23)c1 [Compound 47, tert-butyl (3-(3-(2-(2-methoxyethoxy)acetamido)phenyl)imidazo[1,2-a]pyridin-6-yl)(methyl) carbamate]	> 6.00	> 6.00
CNc1ccc2ncc(-c3ccc(S(N)(=O)=O)cc3)n2c1 [Compound 63, 4-(6-(methylamino)imidazo[1,2-a]pyridin-3-yl)benzenesulfonamide]	5.00 to 6.00	5.00 to 6.00
